Measured values from publication PMC7321065, “Discovery of New Schiff Bases Tethered Pyrazole Moiety: Design, Synthesis, Biological Evaluation, and Molecular Docking Study as Dual Targeting DHFR/DNA Gyrase Inhibitors with Immunomodulatory Activity” (Molecules, 2020).
≈ marks a conversion by molar mass, not a printed value. Like-named read-outs stand apart in the source and are kept apart here.

Legend:
[1] = tested on: Bacillus subtilis; assay: Inhibition zone, agar plate diffusion; type: cell-based; settings: Bs, mm ± standard deviation, sample at 0.5 mg/mL, read-out: Inhibition zone (IZ)
In short: (§1)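 Compounds in DMSO, with DMSO as negative control, were tested at 0.5 mg/mL in agar wells cut 10 mm wide.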

[2] = tested on: Enterococcus faecalis; assay: Inhibition zone, agar plate diffusion; type: cell-based; settings: Ef, mm ± standard deviation, sample at 0.5 mg/mL, read-out: Inhibition zone (IZ)
In short: as §1

[3] = tested on: Escherichia coli; assay: Inhibition zone, agar plate diffusion; type: cell-based; settings: Ec, mm ± standard deviation, sample at 0.5 mg/mL, read-out: Inhibition zone (IZ)
In short: as §1

[4] = tested on: Pseudomonas aeruginosa; assay: Inhibition zone, agar plate diffusion; type: cell-based; settings: Pa, mm ± standard deviation, sample at 0.5 mg/mL, read-out: Inhibition zone (IZ)
In short: as §1

[5] = tested on: Bacillus subtilis; assay: MIC/MBC, paper disk diffusion; type: cell-based; settings: B. subtilis; for MBC: read-out: MBC
In short: (§2)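 MIC and MBC were obtained by paper disk diffusion, bacteria grown on nutrient agar and fungi/yeast on Sabouraud agar. MIC is the lowest concentration inhibiting growth.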

[6] = tested on: Enterococcus faecalis; assay: MIC/MBC, paper disk diffusion; type: cell-based; settings: E. faecalis; for MBC: read-out: MBC; for MIC: read-out: MIC
In short: as §2

[7] = tested on: Escherichia coli; assay: MIC/MBC, paper disk diffusion; type: cell-based; settings: E. coli; for MBC / MIC: Escherichia coli; for MBC: read-out: MBC; for MIC: read-out: MIC
In short: as §2

[8] = tested on: Salmonella typhi; assay: MIC/MBC, paper disk diffusion; type: cell-based; settings: Salmonella enterica, S. typhi; for MBC: read-out: MBC
In short: as §2

[9] = tested on: hepatocellular carcinoma cell line (HepG2); assay: Antiproliferative activity, MTT assay; type: cell-based, human; settings: Homo sapiens, HepG2; MTT, 48 h; read-out: IC50 HepG-2
In short: (§3)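 MTT added for 4 h, formazan dissolved in DMSO, absorbance at 590 nm. Viability relative to untreated cells; IC50 by probit analysis.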

[10] = tested on: mammary gland breast cancer cell line (MCF-7); assay: Antiproliferative activity, MTT assay; type: cell-based, human; settings: for IC50: Homo sapiens, MCF7, MTT, 48 h, read-out: IC50 MCF-7; for Fold relative to doxorubicin (IC50): MCF-7
In short: as §3

[11] = tested on: S. aureus ATCC 33591; assay: Inhibition zone against MDRB, agar plate diffusion; type: cell-based
[12] = Bacillus subtilis, read-out: MIC

Row | SMILES | zone of inhibition at 500 µg/mL [1] [mm] | zone of inhibition at 500 µg/mL [2] [mm] | zone of inhibition at 500 µg/mL [3] [mm] | zone of inhibition at 500 µg/mL [4] [mm] | Fold more potent than Tetracycline (MIC) [5] [fold] | MBC ([5]; Bacillus subtilis) [µg/mL] | MIC [5, 12] [µg/mL] | MBC [6] [µg/mL] | MIC [6] [µg/mL] | MBC [7] [µg/mL] | MIC [7] [µg/mL] | MIC [8] [µg/mL] | MBC [8] [µg/mL] | IC50 [9] [nM] | IC50 [10] [nM] | Fold relative to doxorubicin (IC50) [10] [fold] | Mean Diameter of Inhibition Zone against MDRB [11] [mm] | MIC [5] [µg/mL] | Fold more than Tetracycline (MIC) [7] [fold]
1 | COc1ccc(Nc2n[nH]c(N=Cc3cc(OC)c(OC)c(OC)c3)c2C(=O)Nc2ccccc2)cc1 [9b, 3-(p-Methoxyphenylamino)-N-phenyl-5-(3,4,5-trimethoxybenzylideneamino)-1H-pyrazole-4-carboxamide] | 25 ± 0.87 | 24 ± 0.35 | 23 ± 0.2 | 21 ± 0.55 | 6 | 9.2 (≈ 18.3 µM) | 4.5 (≈ 8.97 µM) | 7.41 (≈ 14.8 µM) | 3.9 (≈ 7.78 µM) | 14.1 (≈ 28 µM) | 7.81 (≈ 15.6 µM) | 5.57 (≈ 11.1 µM) | 10.6 (≈ 21.1 µM) | 1920 ± 490 | 2210 ± 360 | 0.877 | 25 ± 0.12 | – | –
2 | COc1ccc(Nc2n[nH]c(N=Cc3ccc(N4CCCCC4)cc3)c2C(N)=O)cc1 [8a, 3-(p-Methoxyphenylamino)-5-(4-(piperidin-1-yl)benzylideneamino)-1H-pyrazole-4-carboxamide] | 27 ± 0.5 | 25 ± 0.33 | 23 ± 0.14 | 25 ± 0.85 | – | 3.9 (≈ 9.32 µM) | 1.92 (≈ 4.59 µM) | 6.63 (≈ 15.8 µM) | 3.9 (≈ 9.32 µM) | 1.94 (≈ 4.64 µM) | 0.97 (≈ 2.32 µM) | 7.81 (≈ 18.7 µM) | 12.5 (≈ 29.8 µM) | 2250 ± 850 | 1980 ± 1550 | 0.979 | 24 ± 0.12 | 1.95 (≈ 4.66 µM) | 16
